The values that follow come from PMC9948211 (ACS Omega, 2023).

Broadly, the IC50 is the point on the concentration scale where inhibition reaches its midpoint. High values mean lower potency, low ones higher potency.

In this test the target is T1, PPAR-γ (Homo sapiens, UniProt P37231).
T1 sequence (P37231 1-505): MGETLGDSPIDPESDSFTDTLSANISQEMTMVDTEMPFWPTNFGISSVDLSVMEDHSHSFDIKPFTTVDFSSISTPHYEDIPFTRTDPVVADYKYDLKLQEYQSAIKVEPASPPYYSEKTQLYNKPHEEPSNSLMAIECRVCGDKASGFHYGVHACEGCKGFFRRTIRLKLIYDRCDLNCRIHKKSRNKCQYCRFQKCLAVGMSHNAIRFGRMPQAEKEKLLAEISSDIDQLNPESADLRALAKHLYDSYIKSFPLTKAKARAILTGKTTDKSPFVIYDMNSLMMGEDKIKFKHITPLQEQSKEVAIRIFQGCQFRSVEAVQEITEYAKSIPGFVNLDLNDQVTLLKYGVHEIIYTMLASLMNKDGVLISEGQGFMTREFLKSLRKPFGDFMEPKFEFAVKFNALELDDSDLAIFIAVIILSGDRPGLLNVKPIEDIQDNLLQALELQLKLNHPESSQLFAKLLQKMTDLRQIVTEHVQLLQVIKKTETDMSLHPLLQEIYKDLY
Briefly: LanthaScreen TR-FRET competitive binding assay. A general note: Time-resolved FRET reads energy transfer from a long-lived donor to a nearby acceptor.

Turning to `COc1cc(CC/C(C)=N\O)ccc1OCC(=O)Nc1ccc(F)cc1` [G1, (Z)-N-(4-Fluorophenyl)-2-(4-(3-(hydroxyimino)butyl)-2-methoxyphenoxy)acetamide], the IC50 worked out at 2.25 µM.

`COc1cc(CC/C(C)=N\O)ccc1OCC(=O)Nc1nccs1` [G2, (Z)-2-(4-(3-(Hydroxyimino)butyl)-2-methoxyphenoxy)-N-(thiazol-2-yl)acetamide] returned an IC50 of 4.51 µM.
